Data reported in US9932333B2, “Benzothiazole compound and medicine containing same” (JAPAN SCIENCE AND TECHNOLOGY AGENCY, priority 2014, dated 2018).

Experiments:
[1] = Absorption spectra; assay type: physicochemical
[2] = biological target: T1, Aβ1-42 (Homo sapiens, UniProt P05067); experiment: Fluorescence spectra in the presence or absence of Aβ1-42; assay type: binding; conditions: Aβ1-42 20 μM, 37° C., 3 hours
[3] = biological target: T1, Aβ1-42; experiment: Oxidation reaction of Aβ1-42 under LED irradiation (Example 3); assay type: biochemical
Procedure: (§1) Then, the reaction was monitored with a mass spectrometer (MALDI-TOF MS) or LC/MS (ESI-Q).
(§2) The amino acid analysis of oxidized Aβ1-42 and oxidized amylin (carried out by Peptide Institute, Inc.) was conducted. The oxidized Aβ1-42 and the oxidized amylin were enzymatically digested with endopeptidase Lys-C and chymotrypsin, respectively, and the obtained digests were analyzed with a mass spectrometer (MALD-TOF MS) and LC/MS/MS (ESI-Q-TOF).

[4] = biological target: T2, angiotensin IV (Homo sapiens, UniProt P01019); experiment: Oxidation reaction of angiotensin IV (Example 3); assay type: biochemical; conditions: light irradiation 1.5 hours, neutral buffer, 37° C.
Excerpt: as §1

[5] = biological target: Aβ coexisting with angiotensin IV and methionine enkephalin (Homo sapiens, UniProt P05067); experiment: Oxygenation with Aβ coexisting with angiotensin IV and methionine enkephalin; assay type: biochemical
Chain of Aβ coexisting with angiotensin IV and methionine enkephalin (P05067 672-713): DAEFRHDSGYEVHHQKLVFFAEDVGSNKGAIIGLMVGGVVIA
Excerpt: as §1

[6] = biological target: T3, amylin (Homo sapiens, UniProt P10997); experiment: Oxidation reaction of amylin; assay type: biochemical
T3 construct: amylin, a hormone essential for glycemic control
T3 sequence (P10997 34-70 limits assumed): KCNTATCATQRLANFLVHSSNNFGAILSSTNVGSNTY
Procedure: as §1, §2

[7] = Fluorescence in glycerol/water mixed solvent; assay type: physicochemical; conditions: increasing glycerol concentration
[8] = Singlet oxygen production in glycerol/water (furfuryl alcohol decrease); conditions: aqueous solution containing glycerol, light irradiation
Excerpt: (§3) Then, the reaction was monitored with LC/MS (ESI-Q).

[9] = Oxidation reaction of benzoyl methionine in glycerol/water; conditions: aqueous solution containing glycerol, light irradiation
Excerpt: as §3

[10] = biological target: T2, angiotensin IV; experiment: Selectivity of oxygenation reaction, angiotensin IV (Example 4); assay type: biochemical; parameters: unit not given here; conditions: compound (1a) 20 mmol %, light 1 hour, 37° C.
Excerpt: as §1

[11] = biological target: methionine enkephalin (Homo sapiens, UniProt P01210); experiment: Selectivity of oxygenation reaction, methionine enkephalin (Example 4); assay type: biochemical; parameters: unit not given here; conditions: compound (1a) 20 mmol %, light 1 hour, 37° C.
Excerpt: as §1

[12] = biological target: T4, desacyl ghrelin (Homo sapiens, UniProt Q9UBU3); experiment: Selectivity of oxygenation reaction, desacyl ghrelin (Example 4); assay type: biochemical; parameters: unit not given here; conditions: compound (1a) 20 mmol %, light 1 hour, 37° C.
T4 sequence (Q9UBU3 24-51 limits assumed): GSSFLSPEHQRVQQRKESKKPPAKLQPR
Excerpt: as §1

[13] = biological target: somatostatin (Homo sapiens, UniProt P61278); experiment: Selectivity of oxygenation reaction, somatostatin (Example 4); assay type: biochemical; parameters: unit not given here; conditions: compound (1a) 20 mmol %, light 1 hour, 37° C.
Excerpt: as §1

[14] = biological target: T5, Aβ1-42 oligomers (Homo sapiens, UniProt P05067); experiment: Binding to Aβ1-42 oligomer by fluorescence assay (Example 6); conditions: 10 μM; oligomers prepared at 0° C. and room temperature, 24 hours
T5 sequence (P05067 672-713 limits assumed): as the sequence (P05067 672-713) above
Procedure: (2) Compound (1a) (10 μM) was added to each of solutions containing two types of Aβ1-42 oligomers (0.5 μM) prepared by the incubation of Aβ1-42 (20 μM) in a phosphate buffer solution (10 mM, pH 7.4) at 0° C. and room temperature, respectively, for 24 hours, followed by the measurement of the fluorescence intensity of compound (1a).

[15] = biological target: T5, Aβ1-42 oligomers; experiment: Aggregability of oxygenized Aβ1-42 oligomer (Nile Red, atomic force microscopy); assay type: biochemical; conditions: compared with native
Procedure: (4) Compound (1a) (4 μM) was added to each of solutions containing two types of Aβ1-42 oligomers (0.5 μM) prepared by the incubation of Aβ1-42 (20 μM) in a phosphate buffer solution (10 mM, pH 7.4) at 0° C. and room temperature, respectively, for 24 hours, and the mixture was incubated at room temperature for 1 hour under irradiation with LED (wavelength: 500 nm). Then, each solution was incubated at 37° C., and Nile Red was added thereto, followed by the measurement of its fluorescence intensity. The sample incubated for 6 hours was also analyzed for its shape by atomic force microscopy. A non-oxygenized Aβ1-42 oligomer (native) was prepared without light irradiation.

[16] = biological target: T6, insulin (Homo sapiens, UniProt P01308); experiment: Oxygenation reaction of insulin; assay type: biochemical
T6 construct: prepared by the incubation of insulin (400 μM) in a 25 mM hydrochloric acid solution
T6 sequence (P01308 25-54 limits assumed, species assumed): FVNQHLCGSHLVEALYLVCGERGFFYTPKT
T6 sequence (P01308 90-110 limits assumed, species assumed): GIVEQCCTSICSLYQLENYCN
Excerpt: (§4) Then, the reaction was monitored with a mass spectrometer (MALDI-TOF MS).

[17] = biological target: β2-microglobulin (Homo sapiens, UniProt P61769); experiment: Oxygenation reaction of β2-microglobulin; assay type: biochemical
Chain of β2-microglobulin (P61769 21-119, species assumed): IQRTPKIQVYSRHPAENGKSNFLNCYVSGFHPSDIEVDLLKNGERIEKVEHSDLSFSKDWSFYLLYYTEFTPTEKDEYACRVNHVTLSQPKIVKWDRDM
Excerpt: (§5) The reaction was monitored with a mass spectrometer (MALDI-TOF MS).

[18] = biological target: transthyretin (Homo sapiens, UniProt P02766); experiment: Oxygenation reaction of transthyretin; assay type: biochemical
Excerpt: as §5

[19] = biological target: α-synuclein (Homo sapiens, UniProt P37840); experiment: Oxygenation reaction of α-synuclein; assay type: biochemical
Excerpt: as §5

[20] = biological target: T1, Aβ1-42; experiment: Oxygenation ratio of aggregated to non-aggregated Aβ1-42 (Example 8); assay type: biochemical; conditions: 20.0 mmol %, pH 7.4, room temperature, light 10 minutes
Procedure: as §4
(§6) Each oxygenation ratio was calculated according to (Intensity ratio of oxygenation of aggregated Aβ1-42)/(Intensity ratio of oxygenation of non-aggregated Aβ1-42) and (Intensity ratio of oxygenation of aggregated nucleoside phosphorylase)/(Intensity ratio of oxygenation of non-aggregated nucleoside phosphorylase).

[21] = system: nucleoside phosphorylase; experiment: Oxygenation ratio of aggregated to non-aggregated nucleoside phosphorylase (Example 8); assay type: biochemical; conditions: 4 μM, pH 7.4, room temperature, light 10 minutes
Procedure: (1) A phosphate buffer solution (10 mM, pH 7.4) containing nucleoside phosphorylase (0.1 mg/mL) was incubated at 60° C. The degree of thermal aggregation was monitored using a fluorescence assay kit (Protein Stability and Aggregation Assay Kit (ProFoldin, Hudson, Mo., USA)).
as §5, §6

[22] = 20 μM, light 500 nm, 37° C., 30 minutes

T1 sequence (P05067 672-713 limits assumed): as the sequence (P05067 672-713) above

Structure (SMILES): C[n+]1c(-c2cc3c4c(c2)CCCN4CCC3)sc2cc(Br)ccc21 [1a]
- maximum absorption wavelength ([1]; 20 μM, phosphate buffer pH 7.4): 456 nm
- shift of maximum absorption wavelength to longer wavelength than thioflavin T ([1]; compared with thioflavin T): approximately 50 nm
- fluorescence in the presence of Aβ compared with absence of Aβ [2]: remarkably high as compared with that in the absence of Aβ
- oxidation efficiency of Aβ ([3]; 100 mmol %, light 500 nm, pH 7.4, 37° C., compared with thioflavin T): remarkably high as compared with thioflavin T
- oxygenation site in Aβ1-42 ([3]; amino acid analysis and LC/MS/MS analysis): remarkably at His-13 and His-14 residues, and oxygenation also proceeds slightly at Met-35 residue
- oxygenation of angiotensin IV [4]: ≤ 5%
- selectivity of oxygenation with coexisting substrates [5]: highly selective oxygenation of Aβ was observed
- selectivity for aggregated over monomeric amylin [6]: selectively reacts with aggregated amylin without acting on monomeric amylin
- oxygenation of amylin ([6]; 100 mmol %, light 500 nm, pH 7.4, 37° C.): time-dependent oxygenation at His-18 residue was observed
- oxygenation of amylin in a monomeric state ([6]; pre-incubation 0 h): Only a trace amount of an oxygenated form was detected
- oxygenation of amylin aggregated in advance ([6]; pre-incubation 1 hour and 2 hours): the ratio of oxygenized amylin was elevated
- fluorescence intensity in glycerol/water mixed solvent [7]: increased with increase in the concentration of highly viscous glycerol
- production of singlet oxygen (decrease in furfuryl alcohol) [8]: production of singlet oxygen, with increase in the concentration of glycerol was observed
- oxidation of benzoyl methionine [9]: oxidized in a glycerol concentration-dependent manner
- generation of an oxygenated form of angiotensin IV [10]: ≤ 2
- generation of an oxygenated form of methionine enkephalin [11]: ≤ 2
- generation of an oxygenated form of desacyl ghrelin [12]: ≤ 2
- generation of an oxygenated form of somatostatin [13]: ≤ 2
- binding to Aβ1-42 oligomer (fluorescence) [14]: binds to the Aβ1-42 oligomer
- increase in cross-β structure of Aβ1-42 oligomer (Nile Red fluorescence) ([15]; 4 μM, light 1 hour, then 37° C.): suppress increase in the cross-β structure of the Aβ1-42 oligomer
- fibril formation of Aβ1-42 oligomer (atomic force microscopy) ([15]; incubated for 6 hours): similarly suppressed
- progression of oxygenation of aggregated insulin [16, 22]: observed
- progression of oxygenation of non-aggregated insulin [16, 22]: not observed
- oxygenation of aggregated insulin without light irradiation ([16]; without light irradiation): not observed
- oxygenation of aggregated β2-microglobulin [17, 22]: observed
- progression of oxygenation of non-aggregated β2-microglobulin [17, 22]: not observed
- oxygenation of aggregated β2-microglobulin without light irradiation ([17]; without light irradiation): not observed
- oxygenation of aggregated transthyretin [18, 22]: observed
- progression of oxygenation of non-aggregated transthyretin [18, 22]: not observed
- oxygenation of aggregated transthyretin without light irradiation ([18]; without light irradiation): not observed
- oxygenation of aggregated α-synuclein [19, 22]: observed
- progression of oxygenation of non-aggregated α-synuclein [19, 22]: not observed
- oxygenation of aggregated α-synuclein without light irradiation ([19]; without light irradiation): not observed
- oxygenation ratio (aggregated Aβ1-42 / non-aggregated Aβ1-42) [20]: approximately 4.2
- oxygenation ratio (aggregated / non-aggregated nucleoside phosphorylase) [21]: approximately 1.2
